Assay results taken from patent US9381204B2, “Pharmaceutical compositions containing phosphatidylserine and curcumin” (FIDIA FARMACEUTICI S.P.A., priority 2012, dated 2016).

What was measured:
[1] = tested on: neural progenitor cells (NPCs); experiment: Neuronal differentiation (βIII tubulin) of NPCs exposed to medium of LPS-activated microglia; assay type: cell-based, mice; settings: alone, 1 and 5 μM; NPCs with medium of LPS-activated microglia, 6 days
Procedure: Cultures of stem cells/neural progenitor cells (NPCs) obtained from the subventricular zone of adult mice were used. The NPCs were cultured under conditions of differentiation by mechanical dissociation of the neurospheres and seeding of the individual cells on plates coated with poly-ornithine and laminin in a culture medium only containing factor bFGF, according to state-of-the-art techniques.
The NPC cultures thus obtained were divided into aliquots, each of which was treated differently, as follows:
b) treatment a) and PS and curcumin administered separately at different concentrations;
c) treatment a) and PS/curcumin combined at different relative concentrations.
The control was represented by untreated NPC cells.
Neuronal differentiation was evaluated after 6 days, by immunocytochemical analysis with antibodies directed against the specific marker βIII tubulin, extrapolating the % concentration of protein present in the medium.

[2] = tested on: murine microglia BV-2 cells; experiment: NO release by LPS-activated BV-2 microglia (Griess test); assay type: cell-based; settings: 0.1 μg/ml LPS overnight; for effect on release of NO into the culture medium (FIG. 1): PS 10 and 30 μM, curcumin 2.5 and 5 μM
Procedure: PS (sodium salt), produced and purified according to EP1890706 (example 3), was resuspended in 2:1 chloroform/methanol, dried by evaporation and resuspended in PBS at the final concentration of 100 μM. 95% pure curcumin, prepared in DMSO at the final active ingredient concentration of 20 mM, was used for this experiment.
An in vitro glial activation model using the murine microglia BV-2 cell line was selected for this experiment:
50,000 cells/well were initially seeded in 96-well plates and cultured in DMEM containing 10% FCS, glutamine and antibiotics at 37° C. If activated with LPS (lipopolysaccharide, an endotoxin of Gram-negative bacterial, normally used as pro-inflammatory stimulus both in vitro and in vivo), these cells release NO into the culture medium; the experiment therefore involved stimulating them with 0.1 μg/ml LPS overnight in the presence or absence of PS (10 and 30 μM) or curcumin (2.5 and 5 μM) at different concentrations.
Finally, to evaluate the synergy between the two active constituents, the PS/curcumin combination was tested in the presence of LPS 0.1 μg/ml (as described above):
10 μM PS+2.5 μM curcumin, and
The final NO content in the medium was measured with the Griess test: briefly, aliquots of medium were mixed with equal volumes of Griess reagent (0.1% N(1-naphthyl)ethylenediamine dihydrochloride, 1% sulphanylamide and 0.4M HCl). After 15 minutes' reaction, the absorbance was measured at 570 nm.

microglia BV-2 cells = experiment: IL-1β release from LPS-stimulated BV-2 cells (ELISA); assay type: cell-based, murine; settings: administered individually, 0.1 μg/ml LPS 16 hours; for inhibition of IL-1β release (FIG. 4): 1 μM or 5 μM; for inhibition of IL-1β release at the higher concentration (FIG. 4): 5 μM
Procedure: The experiment was conducted in two steps, and was designed to evaluate the effect on in vitro release of IL-1β from microglia BV-2 cells stimulated with LPS after administration of PS and curcumin. IL-1β is a cytokine strongly involved in the inflammatory processes underlying both osteoarticular disorders and neurodegeneration.
Murine microglial BV-2 cells were stimulated as described in Example 3 (0.1 μg/ml LPS for 16 hours) and then treated with PS and curcumin at the concentration of 1 μM or 5 μM. The IL-1β levels were determined by ELISA assay. The control (CTRL) was represented by cells stimulated with LPS but not treated.
At the second stage of the experiment the effects of the combination of the two substances were evaluated on the same parameter according to the same protocol.

Molecule	percentage of cells positive to βIII tubulin (FIG. 6) [1]	inhibition at 5 µM ([2]; Mus musculus, single treatment of 5 μM curcumin, read-out: inhibition of NO release into the culture medium)	effect on release of NO into the culture medium (FIG. 1) [2]	inhibition of IL-1β release (FIG. 4) (microglia BV-2 cells)	inhibition of IL-1β release at the higher concentration (FIG. 4) (microglia BV-2 cells)	inhibition of NO release into the culture medium ([2]; single treatment of 10 μM PS)
COc1cc(C=CC(=O)CC(=O)C=Cc2ccc(O)c(OC)c2)ccc1O [curcumin, 1,7-bis[4-hydroxy-3-methoxyphenyl]-1,6-heptadiene-3,5-dione]	did not differ significantly from that observed in the presence of LPS alone	< 20%	inhibit the release of NO into the medium in a dose-dependent manner	neither PS nor curcumin, administered individually, significantly inhibits the release of IL-1β	limited effect	
phosphatidylserine [PS]	did not differ significantly from that observed in the presence of LPS alone		inhibit the release of NO into the medium in a dose-dependent manner	neither PS nor curcumin, administered individually, significantly inhibits the release of IL-1β	limited effect	≤ 10%
